This test deals with T1, KDM5A (Homo sapiens, UniProt P29375).
T1 construct: Full length KDM5A enzyme was expressed and purified inhouse; made in house
As to the kind of experiment: KDM5 enzyme assay, KDM5A HTRF (Example 463). The class given is biochemical.

Where [1] appears, read: compounds of Examples 1-432, read-out: Example 463 Assay KDM5A HTRF IC50.

Read-outs that look alike come from different tables or passages of the source.

T1 sequence (P29375 whole entry): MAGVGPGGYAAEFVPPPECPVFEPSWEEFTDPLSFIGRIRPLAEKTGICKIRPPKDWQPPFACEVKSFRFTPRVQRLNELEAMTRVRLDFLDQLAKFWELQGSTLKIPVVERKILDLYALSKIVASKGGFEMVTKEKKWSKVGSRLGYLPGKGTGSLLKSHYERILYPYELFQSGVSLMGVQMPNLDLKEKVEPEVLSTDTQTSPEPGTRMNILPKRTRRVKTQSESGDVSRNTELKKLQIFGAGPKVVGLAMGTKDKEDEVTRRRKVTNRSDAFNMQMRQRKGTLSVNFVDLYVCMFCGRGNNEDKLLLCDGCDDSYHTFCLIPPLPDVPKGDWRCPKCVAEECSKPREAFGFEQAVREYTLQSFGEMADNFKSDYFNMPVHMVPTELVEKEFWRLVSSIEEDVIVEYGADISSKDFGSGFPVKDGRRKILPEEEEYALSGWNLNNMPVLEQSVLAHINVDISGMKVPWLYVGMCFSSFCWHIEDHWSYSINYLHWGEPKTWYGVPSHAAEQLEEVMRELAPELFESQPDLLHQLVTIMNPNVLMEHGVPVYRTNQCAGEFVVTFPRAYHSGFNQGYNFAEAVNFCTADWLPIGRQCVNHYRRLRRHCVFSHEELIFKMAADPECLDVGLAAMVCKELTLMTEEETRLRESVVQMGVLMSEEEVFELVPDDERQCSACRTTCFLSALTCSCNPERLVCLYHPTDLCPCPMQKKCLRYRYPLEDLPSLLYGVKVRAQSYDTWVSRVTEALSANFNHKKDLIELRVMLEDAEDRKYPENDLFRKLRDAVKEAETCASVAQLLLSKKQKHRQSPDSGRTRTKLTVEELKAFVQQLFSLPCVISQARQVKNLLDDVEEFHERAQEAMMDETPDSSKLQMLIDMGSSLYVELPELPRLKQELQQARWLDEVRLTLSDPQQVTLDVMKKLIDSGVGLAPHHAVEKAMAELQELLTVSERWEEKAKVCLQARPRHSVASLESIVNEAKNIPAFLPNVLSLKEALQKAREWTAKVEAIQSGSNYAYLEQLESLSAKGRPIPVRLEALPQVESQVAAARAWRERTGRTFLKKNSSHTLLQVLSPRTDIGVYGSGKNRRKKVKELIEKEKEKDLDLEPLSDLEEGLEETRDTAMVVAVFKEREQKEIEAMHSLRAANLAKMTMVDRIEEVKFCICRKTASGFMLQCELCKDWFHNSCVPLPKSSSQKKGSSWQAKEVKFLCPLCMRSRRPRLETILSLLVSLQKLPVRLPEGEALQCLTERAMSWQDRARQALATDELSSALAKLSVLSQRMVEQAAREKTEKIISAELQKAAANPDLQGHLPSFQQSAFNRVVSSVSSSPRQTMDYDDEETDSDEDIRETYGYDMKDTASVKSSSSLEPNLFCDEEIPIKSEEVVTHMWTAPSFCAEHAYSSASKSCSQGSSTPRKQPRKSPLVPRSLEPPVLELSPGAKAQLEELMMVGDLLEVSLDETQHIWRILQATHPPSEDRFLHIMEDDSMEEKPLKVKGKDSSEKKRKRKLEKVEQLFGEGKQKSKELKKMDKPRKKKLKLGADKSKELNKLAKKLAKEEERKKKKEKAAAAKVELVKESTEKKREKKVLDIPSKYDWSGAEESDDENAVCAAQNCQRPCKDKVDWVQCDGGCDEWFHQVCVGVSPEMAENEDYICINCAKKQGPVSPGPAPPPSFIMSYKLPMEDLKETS
Method: Full length KDM5A enzyme was expressed and purified inhouse. Biotin-H3K4me3 peptide was purchased from New England Biolabs. HTRF reagents (containing Eu-labeled H3K4me1-2 antibody, and streptavidin-XL665) were purchased from Cis-Bio International. Plates were read on an Envision multi-label plate reader Perkin Elmer).
The HTRF assay mixture contained 2 nM full length KDM5A enzyme, 100 nM H3K4Me3 peptide substrate, 1 uM 2-OG, 100 uM Fe^2+, 500 uM ascorbate. 50 mM HEPES pH 7.0 buffer, 0.01% Triton-X 100, 2 mM DTT. […] The plates were incubated at room temperature for 60 minutes and then read in the Envision plate reader.

As for `CC(C)c1c(-c2cnn(C)c2)n(C)c2c(C#N)cnn2c1=O` [Example 167], under setting [1], the IC50 was 0.1 µM.
Still for that read-out and setting: the same measure for `CC(C)c1c(-c2cccs2)n(C)c2c(C#N)cnn2c1=O` [Example 168]: 0.046 µM.
Still for that read-out and setting: the same measure for `CC(C)c1c(-c2ccsc2)n(C)c2c(C#N)cnn2c1=O` [Example 169]: 0.047 µM.
Take `CC(C)c1c(C2=CCOC2)n(C)c2c(C#N)cnn2c1=O` [Example 170]: under setting [1], the IC50 is 0.21 µM.
As to `CC(C)c1c(-c2ccn[nH]2)n(C)c2c(C#N)cnn2c1=O` [Example 171], the IC50 under setting [1] came to 0.037 µM.
On the same count and under the same terms, the same measure for `CC(C)c1c(-c2ccc(C(F)(F)F)cc2)n(C)c2c(C#N)cnn2c1=O` [Example 172]: 0.14 µM.
On the same count and under the same terms, in the case of `COc1ccc(-c2c(C(C)C)c(=O)n3ncc(C#N)c3n2C)cc1` [Example 173] it was 0.039 µM.
As for `CC(C)c1c(-c2ccccc2F)n(C)c2c(C#N)cnn2c1=O` [Example 174], the IC50 under setting [1] was 0.081 µM.
The same measure, in the same setting: the same measure for `CC(C)c1c(-c2cccc(-c3ccccc3)c2)n(C)c2c(C#N)cnn2c1=O` [Example 175]: 0.043 µM.
As to `CCc1c(-c2cccc(-c3ccccc3)c2)n(C)c2c(C#N)cnn2c1=O` [Example 176], the IC50 under setting [1] turned out to be 0.052 µM.
On to `CCc1c(-c2ccco2)n(C)c2c(C#N)cnn2c1=O` [Example 177], for which the IC50 under setting [1] was 0.038 µM.
As for `CC(C)c1c(-c2ccco2)n(C)c2c(C#N)cnn2c1=O` [Example 178], the IC50 under setting [1] came to 0.043 µM.
On to `C=Cc1c(C(C)C)c(=O)n2ncc(C#N)c2n1C` [Example 179], for which the IC50 under setting [1] was 0.035 µM.
Still for that read-out and setting: the same measure for `C=C(C)c1c(C(C)C)c(=O)n2ncc(C#N)c2n1C` [Example 180]: 0.061 µM; for `CC(C)c1c(-c2cnn(Cc3ccccc3)c2)n(C)c2c(C#N)cnn2c1=O` [Example 181]: 0.06 µM; for `CCc1c(-c2cnn(Cc3ccccc3)c2)n(C)c2c(C#N)cnn2c1=O` [Example 182]: 0.13 µM.
Still for that read-out and setting: in the case of `CC(C)c1c(-c2ccc(F)cc2)n(C)c2c(C#N)cnn2c1=O` [Example 183] it was 0.033 µM; in that of `CC(C)c1c(-c2ccc(C#N)cc2)n(C)c2c(C#N)cnn2c1=O` [Example 184], 0.056 µM.
Regarding `CC(C)c1c(-c2ccc(-c3ccccc3)o2)n(C)c2c(C#N)cnn2c1=O` [Example 185], the IC50 under setting [1] turned out to be 0.02 µM.
For `CC(C)c1c(-c2cn[nH]c2)n(C)c2c(C#N)cnn2c1=O` [Example 186], the IC50 under setting [1] turned out to be 0.049 µM.
`CC(C)c1c(-c2cc(-c3ccccc3)co2)n(C)c2c(C#N)cnn2c1=O` [Example 187]: the IC50 under setting [1] was found to be 0.75 µM.
Still for that read-out and setting: in the case of `CC(C)c1c(-c2ccc(=O)n(C)c2)n(C)c2c(C#N)cnn2c1=O` [Example 188] it was 0.24 µM; in that of `CCn1cc(-c2c(C(C)C)c(=O)n3ncc(C#N)c3n2C)cn1` [Example 189], 0.16 µM.
Still for that read-out and setting: the same measure for `CC(C)c1c(-c2cc(C3CC3)co2)n(C)c2c(C#N)cnn2c1=O` [Example 190]: 0.057 µM; for `CCc1c(C)n(CC)c2c(C#N)cnn2c1=O` [Example 191]: 0.76 µM.
Still for that read-out and setting: the same measure for `CCCn1c(C)c(CC)c(=O)n2ncc(C#N)c12` [Example 192]: 1.5 µM; for `CCc1c(C)n(CC2CC2)c2c(C#N)cnn2c1=O` [Example 193]: 0.86 µM.
Consider `CCc1c(C)n(CCOC)c2c(C#N)cnn2c1=O` [Example 194], for which the IC50 under setting [1] amounted to 2.3 µM.
On the same count and under the same terms, in the case of `CCc1c(C)n(CCO)c2c(C#N)cnn2c1=O` [Example 195] it was 2.2 µM; in that of `Cc1c(C(C)C)c(=O)n2ncc(C#N)c2n1C` [Example 196], 0.047 µM.
Take `CC(C)c1c[nH]c2c(C#N)cnn2c1=O` [Example 197]: the IC50 turned out to be 0.029 µM.
For the compound `CC(C)c1cn(C)c2c(C#N)cnn2c1=O` [Example 198], the IC50 under setting [1] came to 0.61 µM.
On the same count and under the same terms, the same measure for `CCOC(=O)c1c(CC)c(=O)n2ncc(C#N)c2n1C` [Example 199]: 0.18 µM.
On the same count and under the same terms, in the case of `CCc1c(C(=O)O)n(C)c2c(C#N)cnn2c1=O` [Example 200] it was 0.9 µM; in that of `CCc1c(C(N)=O)[nH]c2c(C#N)cnn2c1=O` [Example 201], 0.029 µM; in that of `CCc1c(-c2cc[nH]c2)[nH]c2c(C#N)cnn2c1=O` [Example 202], 0.006 µM.
Still for that read-out and setting: in the case of `CC(C)c1c(-c2cc[nH]c2)[nH]c2c(C#N)cnn2c1=O` [Example 203] it was 0.011 µM.
For `CC(C)c1c(-c2ccc3c(c2)OC(F)(F)O3)[nH]c2c(C#N)cnn2c1=O` [Example 204], the IC50 under setting [1] was determined as 0.019 µM.
Regarding `CC(C)c1c(-c2ccc(C(N)=O)c(F)c2)[nH]c2c(C#N)cnn2c1=O` [Example 205], under setting [1], the IC50 came out at 0.023 µM.
Consider `CC(C)c1c(-c2ccc(S(C)(=O)=O)c(F)c2)[nH]c2c(C#N)cnn2c1=O` [Example 206], for which the IC50 under setting [1] is 0.021 µM.
For the compound `CC(C)c1c(-c2ccc(OC(F)(F)F)c(Cl)c2)[nH]c2c(C#N)cnn2c1=O` [Example 207], under setting [1], the IC50 came to 0.033 µM.
For `CC(C)c1c(-c2cc(F)cc(C(N)=O)c2)[nH]c2c(C#N)cnn2c1=O` [Example 208], the 50% inhibitory concentration (IC50) under setting [1] worked out at 0.009 µM.
The same measure, in the same setting: the same measure for `COc1ccc(-c2[nH]c3c(C#N)cnn3c(=O)c2C(C)C)cc1CO` [Example 209]: 0.018 µM; for `CC(C)c1c(-c2ccn(S(C)(=O)=O)c2)[nH]c2c(C#N)cnn2c1=O` [Example 210]: 0.012 µM.
The same measure, in the same setting: in the case of `CC(C)c1c(-c2ccn(C)c2)[nH]c2c(C#N)cnn2c1=O` [Example 211] it was 0.024 µM; in that of `CC(C)c1c(-c2cc3ccccc3[nH]2)[nH]c2c(C#N)cnn2c1=O` [Example 212], 0.008 µM.
`CC(C)c1c(NC(=O)C2CC2)[nH]c2c(C#N)cnn2c1=O` [Example 213]: under setting [1], the IC50 turned out to be 0.018 µM.
Same read-out and setting: the same measure for `CC(C)c1c(NC(=O)c2ccccc2)[nH]c2c(C#N)cnn2c1=O` [Example 214]: 0.026 µM; for `N#Cc1cnn2c(=O)cc(-c3cccc(Br)c3)[nH]c12` [Example 215]: 0.41 µM; for `N#Cc1cnn2c(=O)c(Cl)c(-c3ccccc3)[nH]c12` [Example 216]: 0.02 µM.
Take `Cc1[nH]c2c(C#N)cnn2c(=O)c1-c1ccccc1` [Example 217]: the IC50 under setting [1] came to 2.1 µM.
On the same count and under the same terms, the same measure for `Cn1c(-c2ccccc2)c(Br)c(=O)n2ncc(C#N)c12` [Example 218]: 8 µM; for `Cn1c(-c2ccccc2)c(Cl)c(=O)n2ncc(C#N)c12` [Example 219]: 4.3 µM.
The same measure, in the same setting: the same measure for `Cc1[nH]c2c(C#N)cnn2c(=O)c1Sc1ccccc1Cl` [Example 220]: 21 µM.
Turning to `Cc1c(-c2ccccc2)c(=O)n2ncc(C#N)c2n1C` [Example 221], the half-inhibitory concentration (IC50) under setting [1] came to 25 µM.
On the same count and under the same terms, in the case of `N#Cc1cnn2c(=O)c(CCF)c(-c3ccccc3)[nH]c12` [Example 222] it was 0.012 µM; in that of `C=CCc1c(-c2ccccc2)[nH]c2c(C#N)cnn2c1=O` [Example 223], 0.009 µM.
Regarding `C=C(C)c1c(-c2ccccc2)[nH]c2c(C#N)cnn2c1=O` [Example 224], the IC50 came out at 0.025 µM.
`CC#CCc1c(-c2ccccc2)[nH]c2c(C#N)cnn2c1=O` [Example 225]: the IC50 under setting [1] was 5.4 µM.
For `Cn1c(-c2ccccc2)c(C2CC2)c(=O)n2ncc(C#N)c12` [Example 226], the IC50 under setting [1] was determined as 0.37 µM.
Regarding `CCc1c(-c2cccc(-c3cnn(C)c3)c2)[nH]c2c(C#N)cnn2c1=O` [Example 227], under setting [1], the IC50 was 0.013 µM.
As for `CCc1c(-c2cccc(-c3cnn(C(C)C)c3)c2)[nH]c2c(C#N)cnn2c1=O` [Example 228], the IC50 under setting [1] turned out to be 0.023 µM.
`Cn1c(-c2ccccc2)c(-c2ccncc2)c(=O)n2ncc(C#N)c12` [Example 229]: the IC50 under setting [1] was 9.6 µM.
Same read-out and setting: in the case of `CCc1c(-c2ccc(-c3ccccc3)cc2)[nH]c2c(C#N)cnn2c1=O` [Example 230] it was 0.009 µM; in that of `C/C=C/Cc1c(-c2ccccc2)[nH]c2c(C#N)cnn2c1=O` [Example 231], 0.17 µM; in that of `CCc1c(-c2ccc(Nc3ccc(F)cc3)cc2)[nH]c2c(C#N)cnn2c1=O` [Example 232], 0.019 µM.
Consider `CCc1c(-c2cccc(NC(=O)OC(C)(C)C)c2)[nH]c2c(C#N)cnn2c1=O` [Example 233], for which the IC50 under setting [1] turned out to be 0.02 µM.
Turning to `N#Cc1cnn2c(=O)c(I)c(-c3ccccc3)[nH]c12` [Example 234], the IC50 under setting [1] was found to be 0.015 µM.
The same measure, in the same setting: in the case of `C#CC(C)c1c(-c2ccccc2)[nH]c2c(C#N)cnn2c1=O` (centres unmarked) [Example 235] it was 0.014 µM; in that of `CCC(C)c1c(-c2ccccc2)[nH]c2c(C#N)cnn2c1=O` (centres unmarked) [Example 236], 0.018 µM.
Regarding `CC(=O)N1CC=C(c2[nH]c3c(C#N)cnn3c(=O)c2C(C)C)CC1` [Example 237], the IC50 under setting [1] came to 0.078 µM.
On the same count and under the same terms, the same measure for `CCC(=O)N1CC=C(c2[nH]c3c(C#N)cnn3c(=O)c2C(C)C)CC1` [Example 238]: 0.049 µM; for `C=CC(=O)N1CC=C(c2[nH]c3c(C#N)cnn3c(=O)c2C(C)C)CC1` [Example 239]: 0.021 µM.
As for `CC(C)c1c(C2=CCN(C)CC2)[nH]c2c(C#N)cnn2c1=O` [Example 240], the IC50 under setting [1] was determined as 0.05 µM.
Regarding `Cc1nc(Cn2cc(-c3[nH]c4c(C#N)cnn4c(=O)c3C(C)C)cn2)cs1` [Example 241], the IC50 under setting [1] stood at 0.013 µM.
In the case of `CC(=O)NCCn1cc(-c2[nH]c3c(C#N)cnn3c(=O)c2C(C)C)cn1` [Example 242], under setting [1], the IC50 came to 0.027 µM.
For the compound `CC(C)c1c(-c2cc(Cl)cc(Cl)c2)[nH]c2c(C#N)cnn2c1=O` [Example 243], the IC50 under setting [1] came out at 0.02 µM.
Regarding `CC(C)c1c(-c2ccc(S(C)(=O)=O)cc2F)[nH]c2c(C#N)cnn2c1=O` [Example 244], the IC50 under setting [1] came to 0.021 µM.
Consider `CCC(C)(C)n1cc(-c2[nH]c3c(C#N)cnn3c(=O)c2C(C)C)cn1` [Example 245], for which, under setting [1], the IC50 turned out to be 0.046 µM.
As for `CC(C)c1c(-c2ccc(F)c(Cl)c2)[nH]c2c(C#N)cnn2c1=O` [Example 246], under setting [1], the IC50 was 0.022 µM.
On the same count and under the same terms, the same measure for `CC(C)c1c(-c2cccc(CCN3CCOCC3)c2)[nH]c2c(C#N)cnn2c1=O` [Example 247]: 0.015 µM; for `CC(C)c1c(-c2cccc(CCN(C)C)c2)[nH]c2c(C#N)cnn2c1=O` [Example 248]: 0.069 µM; for `CC(CO)c1c(-c2ccccc2)[nH]c2c(C#N)cnn2c1=O` (centres unmarked) [Example 249]: 0.03 µM.

The values above are taken from patent US10035801B2, “Pyrazolo compounds and uses thereof” (CONSTELLATION PHARMACEUTICALS, INC., priority 2013, dated 2018).
